The numbers were not newly measured in US20040059096A1, “Anti-ciguatoxin monoclonal antibody” (priority 2001, published 2004), which cites them from elsewhere.

The conditions of the data set: species and route not given.

On to `C[C@@H]1C[C@@H]2O[C@@H]3[C@@H](C)[C@H](O)[C@@H]4OC5(C[C@H](O)CO5)[C@@H](C)[C@H](C)[C@H]4O[C@H]3C[C@H]2O[C@H]2C[C@H]3O[C@@H]4/C=C\C[C@H]5O[C@H]6C=C[C@H]7O[C@H]8[C@H](O)[C@H]9O[C@@H](/C=C/[C@H](O)CO)C=CC[C@@H]9O[C@@H]8C[C@@H]7O[C@@H]6C=C[C@@H]5O[C@@H]4C[C@@H](O)[C@]3(C)O[C@@H]2C1` (stereo partly shown) [CTX], for which the median lethal dose (LD50) (commonly the dose expected to kill half of the subjects tested) was 0.35 µg/kg.
